{"source": "PubChem BioAssay (NCI)", "test_in_all_cases": "NCI-60 cell line screen, 48 h", "key": {"[1]": {"tested_on": "SK-OV-3 ovarian"}, "[2]": {"tested_on": "SNB-19 CNS"}, "[3]": {"tested_on": "SW-620 colon"}, "[4]": {"tested_on": "EKVX NSCLC"}, "[5]": {"tested_on": "UO-31 renal"}, "[6]": {"tested_on": "OVCAR-8 ovarian"}, "[7]": {"tested_on": "IGROV1 ovarian"}, "[8]": {"tested_on": "MDA-MB-231 breast"}, "[9]": {"tested_on": "HCT-15 colon"}, "[10]": {"tested_on": "TK-10 renal"}, "[11]": {"tested_on": "SF-268 CNS"}, "[12]": {"tested_on": "SNB-75 CNS"}, "[13]": {"tested_on": "SF-539 CNS"}, "[14]": {"tested_on": "ACHN renal"}, "[15]": {"tested_on": "RXF 393 renal"}, "[16]": {"tested_on": "COLO 205 colon"}, "[17]": {"tested_on": "NCI-H460 lung"}, "[18]": {"tested_on": "MCF7 breast"}, "[19]": {"tested_on": "MDA-MB-435"}, "[20]": {"tested_on": "MALME-3M melanoma"}, "[21]": {"tested_on": "T-47D breast"}, "[22]": {"tested_on": "U251 CNS"}, "[23]": {"tested_on": "UACC-62 melanoma"}, "[24]": {"tested_on": "SK-MEL-5 melanoma"}, "[25]": {"tested_on": "M14 melanoma"}, "[26]": {"tested_on": "786-0 renal"}, "[27]": {"tested_on": "SN12C renal"}, "[28]": {"tested_on": "NCI-H23 lung"}, "[29]": {"tested_on": "DU-145 prostate"}}, "note": "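All cell lines were grown in 96-well plates and treated with compound for 48 hours. GI50 = concentration required for 50% inhibition of growth. TGI denotes the concentration required for complete inhibition of growth.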"}
{"smiles": "N#Cc1cc(-c2ccc3ncnc(N4CCc5cc(F)c(Cl)cc54)c3c2)cnc1N", "values": [{"measurement": "GI50", "setting": "[1]", "result": 2920, "unit": "nM"}, {"measurement": "TGI", "setting": "[1]", "result": "> 100000", "unit": "nM"}, {"measurement": "GI50", "setting": "[2]", "result": 3410, "unit": "nM"}, {"measurement": "TGI", "setting": "[2]", "result": "> 100000", "unit": "nM"}, {"measurement": "GI50", "setting": "[3]", "result": 2620, "unit": "nM"}, {"measurement": "TGI", "setting": "[3]", "result": "> 100000", "unit": "nM"}, {"measurement": "GI50", "setting": "[4]", "result": 940, "unit": "nM"}, {"measurement": "TGI", "setting": "[4]", "result": "> 100000", "unit": "nM"}, {"measurement": "GI50", "setting": "[5]", "result": 278, "unit": "nM"}, {"measurement": "TGI", "setting": "[5]", "result": "> 100000", "unit": "nM"}, {"measurement": "GI50", "setting": "[6]", "result": 2340, "unit": "nM"}, {"measurement": "TGI", "setting": "[6]", "result": "> 100000", "unit": "nM"}, {"measurement": "GI50", "setting": "[7]", "result": 365, "unit": "nM"}, {"measurement": "TGI", "setting": "[7]", "result": 3010, "unit": "nM"}, {"measurement": "GI50", "setting": "[8]", "result": 2450, "unit": "nM"}, {"measurement": "TGI", "setting": "[8]", "result": 9480, "unit": "nM"}, {"measurement": "GI50", "setting": "[9]", "result": 1680, "unit": "nM"}, {"measurement": "TGI", "setting": "[9]", "result": "> 100000", "unit": "nM"}, {"measurement": "GI50", "setting": "[10]", "result": 993, "unit": "nM"}, {"measurement": "TGI", "setting": "[10]", "result": "> 100000", "unit": "nM"}, {"measurement": "GI50", "setting": "[11]", "result": 2310, "unit": "nM"}, {"measurement": "TGI", "setting": "[11]", "result": "> 100000", "unit": "nM"}, {"measurement": "GI50", "setting": "[12]", "result": 838, "unit": "nM"}, {"measurement": "TGI", "setting": "[12]", "result": "> 100000", "unit": "nM"}, {"measurement": "GI50", "setting": "[13]", "result": 1870, "unit": "nM"}, {"measurement": "TGI", "setting": "[13]", "result": "> 100000", "unit": "nM"}, {"measurement": "GI50", "setting": "[14]", "result": 850, "unit": "nM"}, {"measurement": "TGI", "setting": "[14]", "result": "> 100000", "unit": "nM"}, {"measurement": "GI50", "setting": "[15]", "result": 316, "unit": "nM"}, {"measurement": "TGI", "setting": "[15]", "result": 2940, "unit": "nM"}, {"measurement": "GI50", "setting": "[16]", "result": 1900, "unit": "nM"}, {"measurement": "TGI", "setting": "[16]", "result": "> 100000", "unit": "nM"}, {"measurement": "GI50", "setting": "[17]", "result": 1900, "unit": "nM"}, {"measurement": "TGI", "setting": "[17]", "result": 6520, "unit": "nM"}, {"measurement": "GI50", "setting": "[18]", "result": 532, "unit": "nM"}, {"measurement": "TGI", "setting": "[18]", "result": 4050, "unit": "nM"}, {"measurement": "GI50", "setting": "[19]", "result": 4150, "unit": "nM"}, {"measurement": "TGI", "setting": "[19]", "result": 29800, "unit": "nM"}, {"measurement": "GI50", "setting": "[20]", "result": 2930, "unit": "nM"}, {"measurement": "TGI", "setting": "[20]", "result": 45500, "unit": "nM"}, {"measurement": "GI50", "setting": "[21]", "result": 1490, "unit": "nM"}, {"measurement": "TGI", "setting": "[21]", "result": "> 100000", "unit": "nM"}, {"measurement": "GI50", "setting": "[22]", "result": 2710, "unit": "nM"}, {"measurement": "TGI", "setting": "[22]", "result": "> 100000", "unit": "nM"}, {"measurement": "GI50", "setting": "[23]", "result": 3390, "unit": "nM"}, {"measurement": "TGI", "setting": "[23]", "result": "> 100000", "unit": "nM"}, {"measurement": "GI50", "setting": "[24]", "result": 3030, "unit": "nM"}, {"measurement": "TGI", "setting": "[24]", "result": "> 100000", "unit": "nM"}, {"measurement": "GI50", "setting": "[25]", "result": 3090, "unit": "nM"}, {"measurement": "TGI", "setting": "[25]", "result": "> 100000", "unit": "nM"}, {"measurement": "GI50", "setting": "[26]", "result": 435, "unit": "nM"}, {"measurement": "TGI", "setting": "[26]", "result": 21900, "unit": "nM"}, {"measurement": "GI50", "setting": "[27]", "result": 1050, "unit": "nM"}, {"measurement": "TGI", "setting": "[27]", "result": 11200, "unit": "nM"}, {"measurement": "GI50", "setting": "[28]", "result": 3340, "unit": "nM"}, {"measurement": "TGI", "setting": "[28]", "result": "> 100000", "unit": "nM"}, {"measurement": "GI50", "setting": "[29]", "result": 1490, "unit": "nM"}]}
